In PubChem BioAssay AID248 (DTP/NCI, 2004):
Values joined by “and” are separate entries in the source; they are usually repeats but may differ in a detail not shown here. Equal values may be shown once. Inconclusive results and toxic doses are left out. No stated cut-off is given here; in the data, active means T/C of 150% or more; inactive means T/C below 125%.

Tested on: L1210 leukemia ip in BDF1 mice, survival T/C
Assay: NCI In Vivo Anticancer Drug Screen. Data for tumor model L1210 Leukemia (intraperitoneal) in B6D2F1 (BDF1) mice
Conditions: endpoint: mean survival time, higher = longer survival
In short: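 Tumor was transplanted into mice, which were then dosed with test compound or vehicle alone. Survival was recorded for each group, and the treated figure was expressed relative to the control figure.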

[1] = dose: 50.0 mg/kg/injection, schedule: Q04DX002 (ip), vehicle: Klucel (hydroxypropylcellulose) (HPC)
[2] = dose: 100.0 mg/kg/injection, schedule: Q04DX002 (ip), vehicle: Klucel (hydroxypropylcellulose) (HPC)
[3] = dose: 200.0 mg/kg/injection, schedule: Q04DX002 (ip), vehicle: Klucel (hydroxypropylcellulose) (HPC)
[4] = dose: 100.0 mg/kg/injection, schedule: Q01DX001 (ip), vehicle: saline
[5] = dose: 200.0 mg/kg/injection, schedule: Q01DX001 (ip), vehicle: saline
[6] = dose: 100.0 mg/kg/injection, schedule: Q01DX001 (ip), vehicle: saline with Tween-80
[7] = dose: 200.0 mg/kg/injection, schedule: Q01DX001 (ip), vehicle: saline with Tween-80
[8] = dose: 400.0 mg/kg/injection, schedule: Q04DX002 (ip), vehicle: Klucel (hydroxypropylcellulose) (HPC)
[9] = dose: 50.0 mg/kg/injection, schedule: Q01DX001 (ip), vehicle: saline

Measured: T/C

O=C1c2ccccc2-c2ccc(-c3ccccc3)c3cccc1c23
inactive: [1] 105 % of control | [2] 102 % of control | [3] 98 % of control | dose: 200.0 mg/kg/injection, schedule: Q04DX002 (ip), vehicle: saline with Tween-80 105 % of control | dose: 400.0 mg/kg/injection, schedule: Q04DX002 (ip), vehicle: saline with Tween-80 98 % of control

CCCCNC(=O)C1C=C2c3cccc4c3C(CN4)CC2N(C)C1 (configuration not stated)
inactive: dose: 25.0 mg/kg/injection, schedule: Q01DX009 (ip), vehicle: saline with Tween-80 87 % of control | dose: 50.0 mg/kg/injection, schedule: Q01DX009 (ip), vehicle: saline with Tween-80 89 % of control

O=C(Nc1cc(Cl)ccc1O)Nc1cc(C(F)(F)F)ccc1Cl
inactive: dose: 100.0 mg/kg/injection, schedule: Q01DX001 (ip), vehicle: carboxymethylcellulose (CMC) 101 % of control | dose: 100.0 mg/kg/injection, schedule: Q01DX009 (ip), vehicle: carboxymethylcellulose (CMC) 95 % of control and 103 % of control | dose: 100.0 mg/kg/injection, schedule: Q04DX002 (ip), vehicle: carboxymethylcellulose (CMC) 97 % of control and 104 % of control | dose: 100.0 mg/kg/injection, schedule: Q04DX003 (ip), vehicle: carboxymethylcellulose (CMC) 97 % of control | dose: 200.0 mg/kg/injection, schedule: Q01DX001 (ip), vehicle: carboxymethylcellulose (CMC) 97 % of control | dose: 200.0 mg/kg/injection, schedule: Q01DX009 (ip), vehicle: carboxymethylcellulose (CMC) 97 % of control and 103 % of control | dose: 200.0 mg/kg/injection, schedule: Q04DX002 (ip), vehicle: carboxymethylcellulose (CMC) 97 % of control and 104 % of control | dose: 200.0 mg/kg/injection, schedule: Q04DX003 (ip), vehicle: carboxymethylcellulose (CMC) 97 % of control | dose: 400.0 mg/kg/injection, schedule: Q01DX001 (ip), vehicle: carboxymethylcellulose (CMC) 98 % of control | dose: 400.0 mg/kg/injection, schedule: Q01DX009 (ip), vehicle: carboxymethylcellulose (CMC) 92 % of control and 97 % of control | dose: 400.0 mg/kg/injection, schedule: Q04DX002 (ip), vehicle: carboxymethylcellulose (CMC) 98 % of control and 90 % of control | dose: 400.0 mg/kg/injection, schedule: Q04DX003 (ip), vehicle: carboxymethylcellulose (CMC) 100 % of control

Cc1nc2ccccc2c(=O)n1N
inactive: [4] 111 % of control | [5] 105 % of control

CCCCCCCCC1CCCCC1
inactive: dose: 50.0 mg/kg/injection, schedule: Q04DX002 (sc), vehicle: olive oil, sesame oil, peanut oil 105 % of control | dose: 100.0 mg/kg/injection, schedule: Q04DX002 (sc), vehicle: olive oil, sesame oil, peanut oil 109 % of control | dose: 200.0 mg/kg/injection, schedule: Q04DX002 (sc), vehicle: olive oil, sesame oil, peanut oil 109 % of control

CC(C(=O)c1ccc(Cl)cc1)C(O)(C(F)(F)F)C(F)(F)F (configuration not stated)
inactive: dose: 50.0 mg/kg/injection, schedule: Q01DX009 (ip), vehicle: Klucel (hydroxypropylcellulose) (HPC) 104 % of control | dose: 100.0 mg/kg/injection, schedule: Q01DX009 (ip), vehicle: Klucel (hydroxypropylcellulose) (HPC) 104 % of control | dose: 100.0 mg/kg/injection, schedule: Q04DX003 (ip), vehicle: Klucel (hydroxypropylcellulose) (HPC) 103 % of control | dose: 200.0 mg/kg/injection, schedule: Q01DX009 (ip), vehicle: Klucel (hydroxypropylcellulose) (HPC) 108 % of control | dose: 200.0 mg/kg/injection, schedule: Q04DX003 (ip), vehicle: Klucel (hydroxypropylcellulose) (HPC) 101 % of control | dose: 400.0 mg/kg/injection, schedule: Q04DX003 (ip), vehicle: Klucel (hydroxypropylcellulose) (HPC) 103 % of control

O=C(OCC(O)C(O)C(O)C(O)COC(=O)c1ccccc1)c1ccccc1 (configuration not stated) (tested in a mixture with another compound)
inactive: [6] 103 % of control | [7] 100 % of control | dose: 400.0 mg/kg/injection, schedule: Q01DX001 (ip), vehicle: saline with Tween-80 90 % of control

Oc1c(Br)ccc2c(O)c(Br)ccc12
inactive: dose: 100.0 mg/kg/injection, schedule: Q04DX003 (ip), vehicle: saline with Tween-80 87 % of control | dose: 118.0 mg/kg/injection, schedule: Q01DX009 (ip), vehicle: saline with Tween-80 107 % of control | dose: 200.0 mg/kg/injection, schedule: Q04DX003 (ip), vehicle: saline with Tween-80 92 % of control | dose: 235.0 mg/kg/injection, schedule: Q01DX009 (ip), vehicle: saline with Tween-80 103 % of control | dose: 400.0 mg/kg/injection, schedule: Q04DX003 (ip), vehicle: saline with Tween-80 95 % of control | dose: 470.0 mg/kg/injection, schedule: Q01DX009 (ip), vehicle: saline with Tween-80 103 % of control

O=S(=O)(O)Cc1ccccc1O
inactive: dose: 100.0 mg/kg/injection, schedule: Q01DX009 (ip), vehicle: saline with Tween-80 96 % of control | dose: 200.0 mg/kg/injection, schedule: Q01DX009 (ip), vehicle: saline with Tween-80 102 % of control | dose: 400.0 mg/kg/injection, schedule: Q01DX009 (ip), vehicle: saline with Tween-80 93 % of control

Cc1nonc1C(=O)NN
inactive: dose: 25.0 mg/kg/injection, schedule: Q04DX002 (ip), vehicle: Klucel (hydroxypropylcellulose) (HPC) 93 % of control | [1] 110 % of control | [2] 93 % of control and 101 % of control

Cc1nc(N)nn1C
inactive: dose: 100.0 mg/kg/injection, schedule: Q04DX002 (ip), vehicle: saline 97 % of control | dose: 200.0 mg/kg/injection, schedule: Q04DX002 (ip), vehicle: saline 110 % of control | dose: 400.0 mg/kg/injection, schedule: Q04DX002 (ip), vehicle: saline 100 % of control

O=C(Nc1ccccc1)C(Cl)S(=O)(=O)O (configuration not stated)
inactive: [6] 97 % of control | [7] 97 % of control

COC12C(COC(=O)NCCO)C3=C(C(=O)C(C)=C(N)C3=O)N1CC1NC12 (configuration not stated)
inactive: dose: 5.0 mg/kg/injection, schedule: Q01DX009 (ip), vehicle: saline 121 % of control | dose: 10.0 mg/kg/injection, schedule: Q01DX009 (ip), vehicle: saline 122 % of control | dose: 12.0 mg/kg/injection, schedule: Q04DX003 (ip), vehicle: Klucel (hydroxypropylcellulose) (HPC) 94 % of control | dose: 19.0 mg/kg/injection, schedule: Q04DX003 (ip), vehicle: Klucel (hydroxypropylcellulose) (HPC) 111 % of control | dose: 28.0 mg/kg/injection, schedule: Q04DX003 (ip), vehicle: Klucel (hydroxypropylcellulose) (HPC) 111 % of control | dose: 40.0 mg/kg/injection, schedule: Q01DX009 (ip), vehicle: saline 102 % of control | dose: 43.0 mg/kg/injection, schedule: Q01DX001 (ip), vehicle: Klucel (hydroxypropylcellulose) (HPC) 121 % of control | dose: 43.0 mg/kg/injection, schedule: Q01DX009 (ip), vehicle: Klucel (hydroxypropylcellulose) (HPC) 109 % of control | dose: 43.0 mg/kg/injection, schedule: Q04DX003 (ip), vehicle: Klucel (hydroxypropylcellulose) (HPC) 115 % of control | dose: 100.0 mg/kg/injection, schedule: Q01DX003 (ip), vehicle: Klucel (hydroxypropylcellulose) (HPC) 103 % of control | dose: 150.0 mg/kg/injection, schedule: Q01DX001 (ip), vehicle: Klucel (hydroxypropylcellulose) (HPC) 102 % of control | dose: 150.0 mg/kg/injection, schedule: Q01DX003 (ip), vehicle: Klucel (hydroxypropylcellulose) (HPC) 94 % of control | [3] 91 % of control | dose: 225.0 mg/kg/injection, schedule: Q01DX001 (ip), vehicle: Klucel (hydroxypropylcellulose) (HPC) 91 % of control | dose: 225.0 mg/kg/injection, schedule: Q01DX003 (ip), vehicle: Klucel (hydroxypropylcellulose) (HPC) 95 % of control | [8] 91 % of control

O=C1OC(=O)C2C1C13CCCC1=C1CCC34C(=O)OC(=O)C43CC123 (configuration not stated)
inactive: dose: 6.25 mg/kg/injection, schedule: Q01DX009 (ip), vehicle: saline 111 % of control | dose: 12.5 mg/kg/injection, schedule: Q01DX001 (ip), vehicle: saline 115 % of control | dose: 12.5 mg/kg/injection, schedule: Q01DX009 (ip), vehicle: saline 109 % of control | dose: 12.5 mg/kg/injection, schedule: Q04DX003 (ip), vehicle: saline 106 % of control | dose: 25.0 mg/kg/injection, schedule: Q01DX001 (ip), vehicle: saline 107 % of control | dose: 25.0 mg/kg/injection, schedule: Q04DX003 (ip), vehicle: saline 104 % of control | [9] 109 % of control

COc1cc(OC)c(NC(=O)Nc2cc([N+](=O)[O-])ccc2C)cc1Cl
inactive: [2] 97 % of control | [3] 108 % of control | [8] 114 % of control

CCCCCCOC(=O)Nc1ccc(S(=O)(=O)N(C)C)cc1
inactive: [4] 103 % of control | [5] 108 % of control | dose: 400.0 mg/kg/injection, schedule: Q01DX001 (ip), vehicle: saline 102 % of control

COC(=O)C1(C(=O)OC)NNC(=O)c2cc(Br)ccc2N1
inactive: [9] 101 % of control | [4] 89 % of control | [5] 95 % of control
